Among the data in PubChem BioAssay (NCI) are TGI and GI50 values, retold here.

Several values for one entry are separate records, joined by “and”; a condition that tells them apart may be missing. Equal entries are not always repeated.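 Protocol summary: plate cells (96-well), add compound at 5 concentrations, incubate 48 h, interpolate endpoints linearly. GI50: concentration for 50% inhibition of growth. At the TGI there is no net growth.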

Some test systems named below: CCRF-CEM leukemia; COLO 205 colon; HS 578T breast; K-562 leukemia; MCF7 breast; MDA-MB-435; NCI/ADR-RES ovarian; SF-295 CNS; SK-MEL-28 melanoma; SW-620 colon.
Common to all, as to assay: NCI anticancer screen, dose series, 48 h

For `COc1ccc2nc(NCN3C(=O)c4ccccc4C3=O)sc2c1`, the TGI in the assay with CCRF-CEM leukemia, in the assay with COLO 205 colon, with HS 578T breast, in the assay with K-562 leukemia, with MCF7 breast and in the assay with MDA-MB-435 was greater than 100 µM throughout. Further, the TGI in the assay with NCI/ADR-RES ovarian, in the assay with SF-295 CNS, in the assay on SK-MEL-28 melanoma and with SW-620 colon was greater than 100 µM in each case.
Regarding `CSc1n(Cc2ccc3ccccc3c2)c(C)c[n+]1Cc1ccc2ccccc2c1`, the GI50 in the assay with CCRF-CEM leukemia was 571 nM; in the assay with COLO 205 colon, 352 nM; in the assay with HS 578T breast it was 1020 nM; in the assay on K-562 leukemia it was 414 nM; with MCF7 breast it was 505 nM; in the assay with MDA-MB-435, 436 nM. Further, the GI50 in the assay on NCI/ADR-RES ovarian is 12.8 µM; in the assay on SF-295 CNS it was 1340 nM; with SK-MEL-28 melanoma, 854 nM; in the assay with SW-620 colon, 852 nM. In addition, the TGI came out at 2.31 µM with CCRF-CEM leukemia; 1.34 µM with COLO 205 colon; 2.7 µM in the assay on HS 578T breast; 2.36 µM in the assay with K-562 leukemia; 1.88 µM in the assay on MCF7 breast; 1.57 µM in the assay with MDA-MB-435. In addition, the TGI with NCI/ADR-RES ovarian worked out at 31.3 µM; with SF-295 CNS it was 2.69 µM; with SK-MEL-28 melanoma it was 2.19 µM; in the assay on SW-620 colon, 2.26 µM.
Regarding `COc1ccc2c(c1)CCc1[nH]nc(-c3cc(OC)c(OC)c(OC)c3)c1-2`, the GI50 in the assay with CCRF-CEM leukemia, in the assay with COLO 205 colon, with HS 578T breast, in the assay with K-562 leukemia, with MCF7 breast and in the assay on MDA-MB-435 was less than 10 nM throughout. The GI50 is less than 0.01 µM with NCI/ADR-RES ovarian, less than 10 nM with SF-295 CNS, 1620 nM in the assay with SK-MEL-28 melanoma and less than 10 nM in the assay on SW-620 colon. Also, the TGI in the assay with CCRF-CEM leukemia was greater than 100 µM; with COLO 205 colon, less than 0.01 µM; with HS 578T breast it was 22.3 µM; in the assay with K-562 leukemia it was greater than 100 µM; in the assay with MCF7 breast it was 12.9 µM; with MDA-MB-435, less than 0.01 µM. Moreover, the TGI with NCI/ADR-RES ovarian was less than 0.01 µM; with SF-295 CNS, 3.22 µM; with SK-MEL-28 melanoma it was 21.7 µM; in the assay with SW-620 colon, 14.5 µM.
In the case of `Clc1ccc(C(c2ccc(Cl)cc2)N2CCNCC2)cc1`, the TGI amounted to 15.3 µM in the assay on CCRF-CEM leukemia; 4.28 µM in the assay with COLO 205 colon; 7.89 µM with HS 578T breast; 3.76 µM in the assay with K-562 leukemia; 3.86 µM with MCF7 breast; 3.63 µM in the assay with MDA-MB-435. Further, the TGI came out at 13.6 µM in the assay on NCI/ADR-RES ovarian, 5.74 µM in the assay on SF-295 CNS, 3.45 µM in the assay with SK-MEL-28 melanoma and 4.96 µM in the assay on SW-620 colon.
Take `OC(C1CO1)C(O)C1CO1` (stereo not drawn): the GI50 is 1530 nM in the assay with CCRF-CEM leukemia; 124000 nM in the assay on COLO 205 colon; 39300 nM in the assay on HS 578T breast; 62500 nM in the assay on K-562 leukemia; 3890 nM in the assay with MCF7 breast; 46100 nM in the assay with MDA-MB-435. Besides, the GI50 with NCI/ADR-RES ovarian was 81 µM; in the assay with SF-295 CNS, 11900 nM and 1590 nM; in the assay with SW-620 colon it was 52400 nM and 93000 nM. The TGI in the assay with CCRF-CEM leukemia was 120 µM and 392 µM; in the assay on COLO 205 colon, 127 µM and 285 µM; with HS 578T breast, 150 µM and 392 µM; with K-562 leukemia, 150 µM; in the assay with MCF7 breast, 140 µM and 78.2 µM; in the assay with MDA-MB-435, 150 µM and 246 µM. For the same compound, the TGI with NCI/ADR-RES ovarian is 123 µM and 320 µM; in the assay with SF-295 CNS, 123 µM and 126 µM; in the assay on SK-MEL-28 melanoma, 144 µM and 239 µM; with SW-620 colon, 150 µM and 458 µM.
As to `Clc1cccc(N2CCN(CCN3CCc4c([nH]c5ccccc45)C3c3cccnc3)CC2)c1` (stereo not drawn), the TGI was greater than 100 µM in the assay on CCRF-CEM leukemia; greater than 84 µM in the assay with COLO 205 colon; greater than 100 µM in the assay with HS 578T breast; greater than 65.4 µM with K-562 leukemia; greater than 100 µM in the assay with MCF7 breast; greater than 100 µM in the assay with MDA-MB-435. The TGI in the assay with NCI/ADR-RES ovarian, with SF-295 CNS, with SK-MEL-28 melanoma and in the assay with SW-620 colon was greater than 100 µM in each case.
For `COc1cc2c(cc1OC)-c1ccc3cc4c(cc3c1N(CCN(C)C)C2)OCO4`, the GI50 with CCRF-CEM leukemia was 148 nM; with COLO 205 colon it was 370 nM; in the assay on HS 578T breast, 1680 nM; in the assay on K-562 leukemia it was 262 nM; in the assay with MCF7 breast, 122 nM; in the assay with NCI/ADR-RES ovarian it was 10.9 µM. In addition, the GI50 with SF-295 CNS was 400 nM; in the assay with SK-MEL-28 melanoma, 3040 nM; in the assay on SW-620 colon it was 522 nM. Besides, the TGI in the assay with CCRF-CEM leukemia turned out to be 3.73 µM; in the assay on COLO 205 colon, 1.92 µM; with HS 578T breast it was 13.7 µM; in the assay with K-562 leukemia it was 1.57 µM; in the assay on MCF7 breast it was 5.98 µM; in the assay with MDA-MB-435, 17.6 µM. For the same compound, the TGI with NCI/ADR-RES ovarian worked out at 45.6 µM; with SF-295 CNS, 8.28 µM; in the assay on SK-MEL-28 melanoma, 17.3 µM; in the assay on SW-620 colon, 2.58 µM.
Take `Nc1nc2ccc3[nH]ncc3c2c2c1CCCC2`: the GI50 with CCRF-CEM leukemia was 2700 nM; with COLO 205 colon it was 2090 nM; in the assay with HS 578T breast, 1950 nM; in the assay on K-562 leukemia, 3150 nM; in the assay with MCF7 breast, 403 nM; in the assay on MDA-MB-435, 1520 nM. Moreover, the GI50 in the assay with NCI/ADR-RES ovarian was 1.75 µM; in the assay on SF-295 CNS, 2490 nM; in the assay on SK-MEL-28 melanoma it was 1620 nM; with SW-620 colon, 1550 nM. The TGI in the assay on CCRF-CEM leukemia stood at 12.5 µM; with COLO 205 colon it was 10.1 µM; in the assay on HS 578T breast it was 6.8 µM; in the assay on K-562 leukemia it was 15 µM; in the assay with MCF7 breast it was 7.25 µM; in the assay with MDA-MB-435 it was 3.36 µM. The TGI is 5.57 µM with NCI/ADR-RES ovarian, 10.5 µM with SF-295 CNS, 4.33 µM in the assay on SK-MEL-28 melanoma and 10 µM in the assay on SW-620 colon.
Turning to `O=C1C(Cl)=C(Nc2cccc(O)c2)C(=O)N1Cc1ccc(Cl)cc1`, the GI50 in the assay on CCRF-CEM leukemia was 2980 nM; in the assay with COLO 205 colon, 3380 nM; with HS 578T breast, 8510 nM; with K-562 leukemia, 1360 nM; in the assay on MCF7 breast, 2750 nM; with MDA-MB-435 it was 1220 nM. The GI50 is 1.58 µM in the assay with NCI/ADR-RES ovarian, 2680 nM in the assay on SF-295 CNS, 4930 nM with SK-MEL-28 melanoma and 2560 nM in the assay with SW-620 colon. The TGI with CCRF-CEM leukemia is greater than 100 µM; in the assay on COLO 205 colon it was 20.8 µM; with HS 578T breast it was greater than 100 µM; in the assay with K-562 leukemia it was 4.52 µM; in the assay on MCF7 breast, 14.6 µM; in the assay with MDA-MB-435 it was 10.1 µM. In addition, the TGI in the assay on NCI/ADR-RES ovarian is 10.2 µM; in the assay on SF-295 CNS, 18.5 µM; in the assay with SK-MEL-28 melanoma it was 23 µM; in the assay on SW-620 colon it was 24.8 µM.
